Patent publication US20120029187A1, “HALOALKYLSULFONANILIDE DERIVATIVE” (Nissan Chemical Industries, Ltd., priority 2009, published 2012)

Columns and labels:
Format in all cases: in vivo
ducksalad [1] = experiment: Test Example 1: herbicidal effects in preemergence treatment under submerged conditions; details: dose 2.52 g/a
Method in brief: (§1)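 Alluvial soil was flooded to 4 cm, sown with barnyardgrass, bulrush and ducksalad, and planted with 2.5-leaf rice seedlings. On the seeding day, water-diluted emulsifiable concentrates were applied to the water surface at set doses (g/a). After three weeks in a 25 to 30° C. greenhouse, mortality was scored 0–5.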

bulrush [2] = experiment: as above; details: dose 2.52 g/a
Method in brief: as §1

barnyardgrass [3] = experiment: as above; details: dose 2.52 g/a
Method in brief: as §1

beadstraw [4] = experiment: Test Example 3: herbicidal effects in soil treatment; details: dose 3.2 g/a
Method in brief: (§2)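 Seeds were sown in sterilized diluvial soil and covered with about 1.5 cm of soil. Compounds, formulated as emulsifiable concentrates and diluted with water, were sprayed evenly over the soil surface at set doses in g/a. Herbicidal effect was scored on a rating scale three weeks later.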

redroot pigweed [5] = experiment: as above; details: dose 3.2 g/a
Method in brief: as §2

common lambsquater [6] = experiment: as above; details: dose 3.2 g/a
Method in brief: as §2

velvetleaf [7] = experiment: as above; details: dose 3.2 g/a
Method in brief: as §2

large crabgrass [8] = experiment: as above; details: dose 3.2 g/a
Method in brief: as §2

water foxtail [9] = experiment: as above; details: dose 3.2 g/a
Method in brief: as §2

common chickweed [10] = experiment: as above; details: dose 3.2 g/a
Method in brief: as §2

giant foxtail [11] = experiment: as above; details: dose 3.2 g/a
Method in brief: as §2

posumbu knotweed [12] = experiment: as above; details: dose 3.2 g/a
Method in brief: as §2

common ragweed [13] = experiment: as above; details: dose 3.2 g/a
Method in brief: as §2

barnyardgrass [14] = experiment: as above; details: dose 3.2 g/a
Method in brief: as §2

Italian ryegrass [15] = experiment: as above; details: dose 3.2 g/a
Method in brief: as §2

beadstraw [16] = experiment: Test Example 4: herbicidal effect in foliage treatment; details: dose 3.2 g/a
Method in brief: (§3)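 14-day greenhouse-grown plants (25–30° C) sprayed on foliage with diluted EC; dose as g/a; effect graded after 3 weeks.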

redroot pigweed [17] = experiment: as above; details: dose 3.2 g/a
Method in brief: as §3

common lambsquater [18] = experiment: as above; details: dose 3.2 g/a
Method in brief: as §3

velvetleaf [19] = experiment: as above; details: dose 3.2 g/a
Method in brief: as §3

large crabgrass [20] = experiment: as above; details: dose 3.2 g/a
Method in brief: as §3

water foxtail [21] = experiment: as above; details: dose 3.2 g/a
Method in brief: as §3

common chickweed [22] = experiment: as above; details: dose 3.2 g/a
Method in brief: as §3

giant foxtail [23] = experiment: as above; details: dose 3.2 g/a
Method in brief: as §3

posumbu knotweed [24] = experiment: as above; details: dose 3.2 g/a
Method in brief: as §3

common ragweed [25] = experiment: as above; details: dose 3.2 g/a
Method in brief: as §3

barnyardgrass [26] = experiment: as above; details: dose 3.2 g/a
Method in brief: as §3

Italian ryegrass [27] = experiment: as above; details: dose 3.2 g/a
Method in brief: as §3

transplanted rice = experiment: Test Example 1: preemergence treatment under submerged conditions, effect on crop; details: dose 2.52 g/a
Method in brief: as §1

ducksalad [28] = experiment: Test Example 2: herbicidal effects during the vegetation period under submerged conditions; details: treatment during the vegetation period under submerged conditions; dose 2.52 g/a
Method in brief: (§4)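 Barnyardgrass, bulrush and ducksalad were co-sown in alluvial soil flooded to 4 cm and grown in a greenhouse at 25 to 30° C. At the 1- or 2-leaf stage, water-diluted emulsifiable concentrates went onto the water surface at set doses (g/a). Herbicidal effect was scored three weeks later on a graded scale.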

bulrush [29] = experiment: as above; details: treatment during the vegetation period under submerged conditions; dose 2.52 g/a
Method in brief: as §4

barnyardgrass [30] = experiment: as above; details: treatment during the vegetation period under submerged conditions; dose 2.52 g/a
Method in brief: as §4

[31] = three weeks after the application

CCC(=O)N(c1ccccc1CN1COC2(CCC2)CC1=O)S(=O)(=O)C(F)(F)F [II-62]
C: ducksalad, herbicidal effect (evaluation scale 0-5) (ducksalad [1]): 5 (mortality of 90% or above (nearly complete death))
B: bulrush, herbicidal effect (evaluation scale 0-5) (bulrush [2]): 5 (mortality of 90% or above (nearly complete death))
A: barnyardgrass, herbicidal effect (evaluation scale 0-5) (barnyardgrass [3]): 5 (mortality of 90% or above (nearly complete death))
O: beadstraw, herbicidal effect (evaluation scale 0-5) (beadstraw [4]): 4 (mortality of at least 70% and less than 90%)
K: redroot pigweed, herbicidal effect (evaluation scale 0-5) (redroot pigweed [5]): 4 (mortality of at least 70% and less than 90%)
L: common lambsquater, herbicidal effect (evaluation scale 0-5) (common lambsquater [6]): 4 (mortality of at least 70% and less than 90%)
I: velvetleaf, herbicidal effect (evaluation scale 0-5) (velvetleaf [7]): 5 (mortality of 90% or above (nearly complete death))
D: large crabgrass, herbicidal effect (evaluation scale 0-5) (large crabgrass [8]): 5 (mortality of 90% or above (nearly complete death))
G: water foxtail, herbicidal effect (evaluation scale 0-5) (water foxtail [9]): 5 (mortality of 90% or above (nearly complete death))
N: common chickweed, herbicidal effect (evaluation scale 0-5) (common chickweed [10]): 5 (mortality of 90% or above (nearly complete death))
E: giant foxtail, herbicidal effect (evaluation scale 0-5) (giant foxtail [11]): 5 (mortality of 90% or above (nearly complete death))
M: posumbu knotweed, herbicidal effect (evaluation scale 0-5) (posumbu knotweed [12]): 5 (mortality of 90% or above (nearly complete death))
J: common ragweed, herbicidal effect (evaluation scale 0-5) (common ragweed [13]): 4 (mortality of at least 70% and less than 90%)
A: barnyardgrass, herbicidal effect (evaluation scale 0-5) (barnyardgrass [14]): 5 (mortality of 90% or above (nearly complete death))
H: Italian ryegrass, herbicidal effect (evaluation scale 0-5) (Italian ryegrass [15]): 5 (mortality of 90% or above (nearly complete death))
O: beadstraw, herbicidal effect (beadstraw [16]; three weeks after application): 4 (mortality of at least 70% and less than 90%)
K: redroot pigweed, herbicidal effect (redroot pigweed [17]; three weeks after application): 3 (mortality of at least 40% and less than 70%)
L: common lambsquater, herbicidal effect (common lambsquater [18]; three weeks after application): 4 (mortality of at least 70% and less than 90%)
I: velvetleaf, herbicidal effect (velvetleaf [19]; three weeks after application): 5 (mortality of 90% or above (nearly complete death))
D: large crabgrass, herbicidal effect (large crabgrass [20]; three weeks after application): 5 (mortality of 90% or above (nearly complete death))
G: water foxtail, herbicidal effect (water foxtail [21]; three weeks after application): 5 (mortality of 90% or above (nearly complete death))
N: common chickweed, herbicidal effect (common chickweed [22]; three weeks after application): 4 (mortality of at least 70% and less than 90%)
E: giant foxtail, herbicidal effect (giant foxtail [23]; three weeks after application): 5 (mortality of 90% or above (nearly complete death))
M: posumbu knotweed, herbicidal effect (posumbu knotweed [24]; three weeks after application): 4 (mortality of at least 70% and less than 90%)
J: common ragweed, herbicidal effect (common ragweed [25]; three weeks after application): 4 (mortality of at least 70% and less than 90%)
A: barnyardgrass, herbicidal effect (barnyardgrass [26]; three weeks after application): 5 (mortality of 90% or above (nearly complete death))
H: Italian ryegrass, herbicidal effect (Italian ryegrass [27]; three weeks after application): 4 (mortality of at least 70% and less than 90%)
a: transplanted rice, effect on crop (evaluation scale 0-5) (transplanted rice): 0 (mortality of less than 5% (almost ineffective))
C: ducksalad, herbicidal effect (evaluation scale 0-5) (ducksalad [28]): 5 (mortality of 90% or above (nearly complete death))
B: bulrush, herbicidal effect (evaluation scale 0-5) (bulrush [29]): 5 (mortality of 90% or above (nearly complete death))
A: barnyardgrass, herbicidal effect (evaluation scale 0-5) (barnyardgrass [30]): 5 (mortality of 90% or above (nearly complete death))

CCC1CON(Cc2ccccc2NS(=O)(=O)C(F)(F)F)C(=O)O1 (centres unmarked) [III-5]
C: ducksalad, herbicidal effect (evaluation scale 0-5) (ducksalad [1]): 5 (mortality of 90% or above (nearly complete death))
B: bulrush, herbicidal effect (evaluation scale 0-5) (bulrush [2]): 5 (mortality of 90% or above (nearly complete death))
A: barnyardgrass, herbicidal effect (evaluation scale 0-5) (barnyardgrass [3]): 5 (mortality of 90% or above (nearly complete death))
herbicidal effect, O: beadstraw (beadstraw [4]): 4 (mortality of at least 70% and less than 90%)
herbicidal effect, K: redroot pigweed (redroot pigweed [5]): 0 (mortality of less than 5% (almost ineffective))
herbicidal effect, L: common lambsquater (common lambsquater [6]): 5 (mortality of 90% or above (nearly complete death))
herbicidal effect, I: velvetleaf (velvetleaf [7]): 5 (mortality of 90% or above (nearly complete death))
herbicidal effect, D: large crabgrass (large crabgrass [8]): 5 (mortality of 90% or above (nearly complete death))
herbicidal effect, G: water foxtail (water foxtail [9]): 5 (mortality of 90% or above (nearly complete death))
herbicidal effect, N: common chickweed (common chickweed [10]): 5 (mortality of 90% or above (nearly complete death))
herbicidal effect, E: giant foxtail (giant foxtail [11]): 5 (mortality of 90% or above (nearly complete death))
herbicidal effect, M: posumbu knotweed (posumbu knotweed [12]): 4 (mortality of at least 70% and less than 90%)
herbicidal effect, J: common ragweed (common ragweed [13]): 4 (mortality of at least 70% and less than 90%)
herbicidal effect, A: barnyardgrass (barnyardgrass [14]): 5 (mortality of 90% or above (nearly complete death))
herbicidal effect, H: Italian ryegrass (Italian ryegrass [15]): 5 (mortality of 90% or above (nearly complete death))
O: beadstraw, herbicidal effect (beadstraw [16]; [31]): 3 (mortality of at least 40% and less than 70%)
K: redroot pigweed, herbicidal effect (redroot pigweed [17]; [31]): 0 (mortality of less than 5% (almost ineffective))
L: common lambsquater, herbicidal effect (common lambsquater [18]; [31]): 3 (mortality of at least 40% and less than 70%)
I: velvetleaf, herbicidal effect (velvetleaf [19]; [31]): 3 (mortality of at least 40% and less than 70%)
D: large crabgrass, herbicidal effect (large crabgrass [20]; [31]): 0 (mortality of less than 5% (almost ineffective))
G: water foxtail, herbicidal effect (water foxtail [21]; [31]): 5 (mortality of 90% or above (nearly complete death))
N: common chickweed, herbicidal effect (common chickweed [22]; [31]): 3 (mortality of at least 40% and less than 70%)
E: giant foxtail, herbicidal effect (giant foxtail [23]; [31]): 3 (mortality of at least 40% and less than 70%)
M: posumbu knotweed, herbicidal effect (posumbu knotweed [24]; [31]): 0 (mortality of less than 5% (almost ineffective))
J: common ragweed, herbicidal effect (common ragweed [25]; [31]): 4 (mortality of at least 70% and less than 90%)
A: barnyardgrass, herbicidal effect (barnyardgrass [26]; [31]): 5 (mortality of 90% or above (nearly complete death))
H: Italian ryegrass, herbicidal effect (Italian ryegrass [27]; [31]): 1 (mortality of at least 5% and less than 20%)
a: transplanted rice, effect on crop (evaluation scale 0-5) (transplanted rice): 0 (mortality of less than 5% (almost ineffective))
C: ducksalad, herbicidal effect (evaluation scale 0-5) (ducksalad [28]): 5 (mortality of 90% or above (nearly complete death))
B: bulrush, herbicidal effect (evaluation scale 0-5) (bulrush [29]): 5 (mortality of 90% or above (nearly complete death))
A: barnyardgrass, herbicidal effect (evaluation scale 0-5) (barnyardgrass [30]): 5 (mortality of 90% or above (nearly complete death))
